Data published in patent publication US9034874B2, “Carbamate/urea derivatives” (NOVARTIS AG, priority 2012, dated 2015).
pKi: −log10 of the molar value.

Key:
human H3 receptors = human H3 receptors (Homo sapiens (Human), UniProt Q9Y5N1); assay: Potency assessment: blockade of (R)-alpha-methylhistamine-mediated cAMP production (LANCE Ultra cAMP kit); format: cell-based; details: CHO cells expressing human H3 receptors
Method: The potency of compounds of the invention as H3 receptor antagonists can be assessed by measuring the blockade of (R)-alpha-methylhistamine-mediated cAMP production utilizing a LANCE Ultra cAMP kit (PE #TRF0263) in CHO cells expressing human H3 receptors (GenBank: BC096840; Strausberg R L et al, Proc. Natl. Acad. Sci. U.S.A. 99(26), 16899-16903; 2002).
2. Preparation of assay plate: Different concentrations of the compounds of the invention (0.01-1000 nM), H3 positive controls and cAMP calibration standards; […] Forskolin (CALBIOCHEM #344270); 5 μM (R)-alpha-methylhistamine (H3 receptor agonist); 1% DMSO (SIGMA #D2650); total volume: 95 nl.
3. Preparation of the cell solution: Collect cells with stimulation buffer, final density: 100,000 cells/ml.
4. Reaction: (a) transfer 10 μl of cell solution to assay plate, (b) centrifuge at 600 rpm for 3 min and incubate 50 min at room temperature, (c) add 5 μL 4× Eu-cAMP tracer solution (60 μl Eu-cAMP tracer stock solution+2.94 ml cAMP detection buffer) and 5 μL 4× ULight™-anti-cAMP solution (20 μl […]+2.98 ml cAMP detection buffer) to assay plate.
5. Reading plate on EnVision: flash energy: 100%; excitation filter: 111 UV2 320; emission filter: 203 (Eu 615) and 205 (APC 665); number of laser flashes: 20; window: 100 μs; laser mirror module: 445 or 446; laser cycle: 16,600 μs.
6. Data analysis by GraphPad Prism: log (compound concentration) vs. response; variable slope.

tele-methylhistamine = assay: Effects on brain tele-methylhistamine levels; format: in vivo, rat; details: male Sprague-Dawley rats, oral, frontal cortex
Method: Compounds of the invention were dissolved in 20% 2-hydroxyl-beta-cyclodextran (HBC) and then sonicated briefly until there is little or no suspension in the solution. Animals (male Sprague-Dawley rats at the age of 8 weeks) were orally dosed with test compounds I hour or other longer time points before they were sacrificed using CO2.
A cardiac puncture was performed to collect blood sample from the cardiac cavity. The collected blood was immediately mixed with EDTA-K2 20 μl/ml to avoid blood clotting. The blood samples in tubes were then centrifuged (15 mim, 6000 rpm) and the plasma transferred to new tubes and then temporarily kept in dry ice until they were stored in a −70° C. freezer.
CSF collection: CSF samples were taken from the foramen magnum of the animal (using a #0.5 intravenous needle), and the CSF sample were kept in dry ice.
The rat brain were taken out of the skull and rinsed with ice-cold saline first. The frontal cortex was separated from the rest of the brain on top of a petri dish with ice underneath. The wet weight of the frontal cortex was weighed and recorded immediately. The frontal cortex sample was then kept in dry ice until they are transferred to a −70° C. freezer.
Bioanalytical Methods for Tele-Methyl Histamine and Compounds:
• Instrument: Agilent 6410, triple quadrupole mass spectrometer • Matrix: rat plasma, frontal cortex homogenate and cerebrospinal fluid (CSF) • Analyte: H3 compounds. • Internal standard: Dexamethasone HPLC Conditions Mobile Phase A: H2O—0.1% NH3.H2O: • Mobile phase B: MeOH-0.1% NH3.H2O • Column: Ultimate XB-C18 (2.1×50 mm, 5 μm) • Flow rate: 0.45 mL/min, temperature: 40° C. MS Conditions: • ESI: positive ion • MRM detection • Dexamethasone: [M+H]+m/z 393.3→373.2; CE: 4; Fragmentor: 110 Sample Preparation: Frontal Cortex:
the brain sample was homogenized for 2 min with 3 volumes (v/w) of homogenizing solution (EtOH:PBS=85:15), and then centrifuged at 12,000 rpm for 5 min. […]

Sequence of human H3 receptors (Q9Y5N1 whole entry): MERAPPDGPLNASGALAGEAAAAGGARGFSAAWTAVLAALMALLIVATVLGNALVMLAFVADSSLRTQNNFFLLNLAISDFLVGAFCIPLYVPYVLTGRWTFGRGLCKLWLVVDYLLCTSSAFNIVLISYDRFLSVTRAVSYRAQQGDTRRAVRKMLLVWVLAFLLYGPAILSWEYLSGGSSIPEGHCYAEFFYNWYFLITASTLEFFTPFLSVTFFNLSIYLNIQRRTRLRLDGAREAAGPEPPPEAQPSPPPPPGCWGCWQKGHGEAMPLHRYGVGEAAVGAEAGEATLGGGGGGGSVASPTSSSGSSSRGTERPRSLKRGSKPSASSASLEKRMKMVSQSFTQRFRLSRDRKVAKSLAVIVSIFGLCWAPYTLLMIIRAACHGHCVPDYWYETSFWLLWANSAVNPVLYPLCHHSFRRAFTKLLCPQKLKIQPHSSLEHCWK

pKi (human H3 receptors)	Compound	% change in tele-methylhistamine brain levels for 10 mg/kg @ 1 h (tele-methylhistamine) [%]
8.89	O=C(OC1CCN(c2ccc(=O)[nH]n2)CC1)N1CCN(C2CCC2)CC1 [Example 1.1, 1-(6-oxo-1,6-dihydropyridazin-3-yl)piperidin-4-yl 4-cyclobutylpiperazine-1-carboxylate]	72
8.62	CC(C)N1CCN(C(=O)OC2CCN(c3ccc(=O)n(C)n3)CC2)CC1 [Example 1.2, 1-(1-methyl-6-oxo-1,6-dihydropyridazin-3-yl)piperidin-4-yl 4-isopropylpiperazine-1-carboxylate]	138
8.92	CC(C)N1CCN(C(=O)OC2CCN(c3ccc(=O)[nH]n3)CC2)CC1 [Example 1.3, 1-(6-oxo-1,6-dihydropyridazin-3-yl)piperidin-4-yl 4-isopropylpiperazine-1-carboxylate]	115
